# Data: article PMC5152921, “Evolutionary and Functional Diversification of the Vitamin D Receptor-Lithocholic Acid Partnership” (PLoS ONE, 2016)
# How the values were obtained:
# [1] = target: all VDR orthologs/paralogs tested; assay: Competitive ligand binding assays, all receptors together; conditions: range over all eight VDR orthologs/paralogs
# Procedure: Recombinant VDR and human RXRWT lysates were prepared from transfected COS7 cells (American Type Culture Collection #CRL-1651) as described in detail previously [32, 33]. Lysates were diluted 10-fold in ice-cold assay buffer (10 mM Tris HCl, 150 mM KCl, 1 mM EDTA, 0.3 mM ZnCl2, 5 mM DTT, and 1x protease inhibitor cocktail (100 μM AEBSF, 80 nM aprotinin, 5 μM bestatin, 1.5 μM E-64 (for cysteine proteases), 2 μM leupeptin, 1 μM pepstatin A), pH 7.5). […] Reactions were shaken to mix and incubated for 18 hours at 4°C. Bound and free ligand were separated with the addition of 80 μL of ice-cold separation buffer (2.5% (w/v) activated charcoal, 0.5% (w/v) dextran, 100 mM Na2HPO4, 39 mM NaH2PO4, 150 mM NaCl, 15 mM NaN3, 10% gelatin, pH 7.0), and incubated at 4°C for 15 minutes with shaking every 5 minutes. Reactions were centrifuged at 5,000 x g for 5 minutes at 4°C, and 200 μL of the supernatant containing the VDR-bound ligands was removed for scintillation counting.
# Total binding was determined using lysate from cells transfected with VDR, and nonspecific binding was determined using lysate from cells transfected with the empty pSG5 vector. Specific binding was determined by subtracting non-specific binding counts from the total binding counts.
# Bichir VDR = target: T1, Bichir VDR (Polypterus senegalus, UniProt A0A088GJ14); assay: Mammalian 2-hybrid assay (VDR-coregulator interaction, HepG2); type: cell-based; conditions: 100 μM LCA
# T1 sequence (A0A088GJ14 1-421): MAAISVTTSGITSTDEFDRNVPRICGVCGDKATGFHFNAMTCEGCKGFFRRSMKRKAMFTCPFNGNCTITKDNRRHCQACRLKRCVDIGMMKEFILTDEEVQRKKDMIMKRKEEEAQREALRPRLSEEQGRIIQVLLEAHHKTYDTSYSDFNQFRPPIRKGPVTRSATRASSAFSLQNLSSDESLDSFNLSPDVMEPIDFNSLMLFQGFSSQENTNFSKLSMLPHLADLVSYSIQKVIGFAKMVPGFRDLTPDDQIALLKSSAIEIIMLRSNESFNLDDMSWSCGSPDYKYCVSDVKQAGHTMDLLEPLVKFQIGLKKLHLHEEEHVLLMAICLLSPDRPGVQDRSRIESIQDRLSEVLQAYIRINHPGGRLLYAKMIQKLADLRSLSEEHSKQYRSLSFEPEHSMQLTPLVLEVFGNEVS
# T1 sequence (P19793 1-462 partner): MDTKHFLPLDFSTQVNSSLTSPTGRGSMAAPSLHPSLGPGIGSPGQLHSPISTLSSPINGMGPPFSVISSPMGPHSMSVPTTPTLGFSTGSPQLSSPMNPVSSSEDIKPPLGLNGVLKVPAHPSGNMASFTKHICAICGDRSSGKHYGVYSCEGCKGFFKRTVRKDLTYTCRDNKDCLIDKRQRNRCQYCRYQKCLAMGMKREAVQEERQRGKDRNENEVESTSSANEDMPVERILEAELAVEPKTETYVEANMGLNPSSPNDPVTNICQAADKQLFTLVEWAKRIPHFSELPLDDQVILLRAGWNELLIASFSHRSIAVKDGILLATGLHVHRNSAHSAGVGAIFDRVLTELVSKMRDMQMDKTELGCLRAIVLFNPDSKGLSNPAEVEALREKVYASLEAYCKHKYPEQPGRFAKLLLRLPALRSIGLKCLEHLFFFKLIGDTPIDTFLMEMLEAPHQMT
# Source text: (§1) Prey constructs included full-length VDRs fused to the herpes simplex VP16 activation domain (pVP16-VDR). Bait constructs consisted of either full-length wild-type human RXR (pM-RXRWT), a truncated human RXR mutant (pM-RXRAF2), or the defined NR box of each member of the SRC/p160 family (pM-SRC1_241-386, pM-GRIP1_479-767, or pM-ACTR392-1005) fused to the yeast Gal4 DNA-binding domain. Reporters included the Gal4 luciferase reporter (5xGal4-TATA-Luc) and pRL-CMV as an internal luciferase control.
# (§2) HepG2 cells were seeded into 96-well tissue culture plates as described above and transfected with Lipofectamine 2000 the following day. Each well received 33.6 ng pVP16-VDR, 33.6 ng pM-coregulator (where indicated), 126.6 ng 5XGal4-TATA-Luc, and 3 ng pRL-CMV. […] Positive controls were treated with 1,25D3 and vehicle controls were treated with ethanol. Luciferase activity was measured 24 hours post-exposure using the Dual-Glo Luciferase Assay System described above. Raw luciferase data were normalized to the pRL-CMV luciferase control. VDR-coregulator response was normalized to the pVP16-VDR in the absence of bait constructs. Results were analyzed using a two-way ANOVA followed by Bonferroni’s multiple comparisons test in Prism (GraphPad Inc, San Diego, CA). All experiments were replicated 3 times and conducted as groups of 4 replicate wells.
# Zebrafish VDRα = target: T2, Zebrafish VDRα (Danio rerio, UniProt Q9PTN2); assay: as above; type: cell-based; conditions: 100 μM LCA
# T2 construct: 89.7 ng/well of full-length pSG5-VDR was co-transfected; expressed in transfected cells; host or cells: HepG2
# T2 sequence (Q9PTN2 1-453): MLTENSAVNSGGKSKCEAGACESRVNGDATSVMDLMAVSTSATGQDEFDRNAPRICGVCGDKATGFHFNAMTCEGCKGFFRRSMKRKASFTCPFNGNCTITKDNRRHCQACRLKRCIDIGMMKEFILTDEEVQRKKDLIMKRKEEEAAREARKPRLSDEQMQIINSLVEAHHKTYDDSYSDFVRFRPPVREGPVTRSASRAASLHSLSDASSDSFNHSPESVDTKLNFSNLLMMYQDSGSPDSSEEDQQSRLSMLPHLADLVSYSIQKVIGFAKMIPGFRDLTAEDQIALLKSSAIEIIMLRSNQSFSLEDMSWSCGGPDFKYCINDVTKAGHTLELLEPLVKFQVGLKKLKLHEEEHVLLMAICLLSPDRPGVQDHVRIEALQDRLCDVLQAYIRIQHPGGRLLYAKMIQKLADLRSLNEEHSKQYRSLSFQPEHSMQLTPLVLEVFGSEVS
# Source text: as §1, §2
# Human VDR = target: T3, Human VDR (Homo sapiens, UniProt P11473); assay: as above; type: cell-based; conditions: 100 μM LCA
# T3 sequence (P11473 1-427): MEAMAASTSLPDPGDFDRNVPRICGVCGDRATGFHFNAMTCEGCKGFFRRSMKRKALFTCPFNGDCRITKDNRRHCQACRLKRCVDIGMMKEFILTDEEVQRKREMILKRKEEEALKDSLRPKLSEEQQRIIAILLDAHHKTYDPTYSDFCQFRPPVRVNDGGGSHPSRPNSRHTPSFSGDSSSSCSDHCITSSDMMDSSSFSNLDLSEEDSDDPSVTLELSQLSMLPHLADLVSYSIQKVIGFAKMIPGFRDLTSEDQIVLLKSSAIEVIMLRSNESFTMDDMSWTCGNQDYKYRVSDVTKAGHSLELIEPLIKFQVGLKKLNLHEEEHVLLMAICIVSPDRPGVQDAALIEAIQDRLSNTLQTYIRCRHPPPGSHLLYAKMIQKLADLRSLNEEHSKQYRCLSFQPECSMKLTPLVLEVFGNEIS
# Source text: as §1, §2
smiles,measurement,setting,value
"C[C@H](CCC(=O)O)[C@H]1CC[C@H]2[C@@H]3CC[C@@H]4C[C@H](O)CC[C@]4(C)[C@H]3CC[C@]12C [LCA, 5β-cholanic acid-3α-ol]",Ki,[1],4.2 to 9.5 µM
same,VDR-SRC/p160 coactivator interaction,Bichir VDR; any of the SRC/p160 coactivators,No protein-protein interaction was observed
same,VDR-RXRWT interaction (heterodimerization),"Bichir VDR; bait human RXRWT, presence and absence of SRC1",not observed
same,VDR-SRC1 interaction,Zebrafish VDRα; absence of cotransfected RXRWT,successfully recruited SRC1
same,VDR-RXRWT interaction (heterodimerization),Zebrafish VDRα; bait human RXRWT,Robust and significant VDR-RXRWT interactions
same,VDR-SRC1 interaction,Zebrafish VDRα; cotransfection of RXRWT,strong VDR-SRC1 interactions
same,VDR-SRC1 interaction,Human VDR; absence of cotransfected RXRWT,successfully recruited SRC1
same,VDR-RXRWT interaction (heterodimerization),Human VDR; bait human RXRWT,Robust and significant VDR-RXRWT interactions
same,VDR-SRC1 interaction,Human VDR; cotransfection of RXRWT,strong VDR-SRC1 interactions
